Results from US6685617B1, “Inhibitors of α4β1 mediated cell adhesion” (Pharmacia & Upjohn Company, priority 1998, dated 2004).
pIC50: −log10 of the molar value. Counter-ions that a name gives are not always drawn.

Experiments:
[1] = target: T1, α4β1 integrin (Jurkat cell adhesion to immobilized CS-1 derived peptide CLHPGEILDVPST) (Homo sapiens, UniProt P05556+P13612); experiment: Jurkat-CS-1 assay; format: cell-based; conditions: Jurkat cells on CS-1 peptide coated plates; read-out: JK/CS-1 (Jurkat CS-1 Assay IC50 value range)
T1 construct: 100 μl of Jurkat cells (2.5×10^6 cells/ml) in DMEM plus BSA; host or cells: Jurkat T-cell line
T1 sequence (P13612 34-1032): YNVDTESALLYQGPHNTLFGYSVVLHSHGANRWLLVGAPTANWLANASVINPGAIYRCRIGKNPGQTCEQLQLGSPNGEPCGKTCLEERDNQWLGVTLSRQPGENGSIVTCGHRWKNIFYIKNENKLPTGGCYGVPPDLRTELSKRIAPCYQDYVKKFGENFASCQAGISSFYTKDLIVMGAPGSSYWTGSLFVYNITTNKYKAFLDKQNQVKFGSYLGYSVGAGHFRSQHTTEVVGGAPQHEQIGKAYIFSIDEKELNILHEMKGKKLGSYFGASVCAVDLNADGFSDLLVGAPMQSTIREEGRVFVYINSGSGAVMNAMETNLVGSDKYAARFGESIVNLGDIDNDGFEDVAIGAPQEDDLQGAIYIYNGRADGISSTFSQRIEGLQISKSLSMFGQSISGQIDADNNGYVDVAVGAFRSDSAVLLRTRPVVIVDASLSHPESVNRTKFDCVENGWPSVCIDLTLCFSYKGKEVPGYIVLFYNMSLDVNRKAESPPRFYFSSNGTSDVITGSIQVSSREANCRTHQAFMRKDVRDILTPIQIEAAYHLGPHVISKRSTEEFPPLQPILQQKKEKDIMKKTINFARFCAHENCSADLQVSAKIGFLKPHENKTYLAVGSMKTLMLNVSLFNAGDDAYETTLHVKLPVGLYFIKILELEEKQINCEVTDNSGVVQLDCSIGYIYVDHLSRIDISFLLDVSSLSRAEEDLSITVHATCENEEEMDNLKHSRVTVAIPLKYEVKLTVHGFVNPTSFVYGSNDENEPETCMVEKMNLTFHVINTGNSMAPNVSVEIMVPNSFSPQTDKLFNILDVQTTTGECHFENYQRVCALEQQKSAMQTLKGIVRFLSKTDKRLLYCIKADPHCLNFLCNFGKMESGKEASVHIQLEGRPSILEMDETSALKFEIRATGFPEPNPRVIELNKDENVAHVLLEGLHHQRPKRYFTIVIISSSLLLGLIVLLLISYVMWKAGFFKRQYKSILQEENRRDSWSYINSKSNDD
T1 sequence (P05556 21-798): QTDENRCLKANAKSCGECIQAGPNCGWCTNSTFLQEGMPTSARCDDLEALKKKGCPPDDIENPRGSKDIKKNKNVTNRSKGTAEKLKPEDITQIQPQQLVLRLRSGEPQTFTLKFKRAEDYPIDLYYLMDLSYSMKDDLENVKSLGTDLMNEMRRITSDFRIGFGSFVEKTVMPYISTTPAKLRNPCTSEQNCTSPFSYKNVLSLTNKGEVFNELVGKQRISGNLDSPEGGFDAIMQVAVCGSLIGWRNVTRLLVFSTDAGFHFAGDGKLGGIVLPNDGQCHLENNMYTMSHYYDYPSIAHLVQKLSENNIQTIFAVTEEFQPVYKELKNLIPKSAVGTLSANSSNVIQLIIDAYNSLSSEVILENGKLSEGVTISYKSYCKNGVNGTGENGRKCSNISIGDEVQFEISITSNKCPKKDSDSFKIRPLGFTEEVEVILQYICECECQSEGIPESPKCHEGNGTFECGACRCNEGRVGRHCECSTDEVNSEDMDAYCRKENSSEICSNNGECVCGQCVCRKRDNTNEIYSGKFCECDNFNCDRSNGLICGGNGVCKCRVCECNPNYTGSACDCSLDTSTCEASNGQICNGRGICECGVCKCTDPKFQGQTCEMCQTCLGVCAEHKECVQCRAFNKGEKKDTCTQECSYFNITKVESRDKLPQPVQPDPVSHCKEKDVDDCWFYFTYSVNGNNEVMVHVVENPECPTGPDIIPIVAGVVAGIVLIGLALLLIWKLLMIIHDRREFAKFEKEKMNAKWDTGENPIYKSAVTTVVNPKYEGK
Outline: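 CS-1 peptide was SPDP-crosslinked onto HSA-coated plates and blocked with BSA. Jurkat cells (2.5×10^6 cells/ml) in DMEM/BSA were mixed with compound, generally at 100, 20, 5 and 1.25 μM, and allowed to adhere for 1 hr at 37° C. Bound cells were fixed, stained with toluidine blue and quantified by OD590.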

[2] = target: T2, α4β1 integrin (Jurkat T-cell adhesion to IL-1 stimulated endothelial cell monolayers) (Homo sapiens, UniProt P05556+P13612); experiment: Jurkat-endothelial cell adhesion assay (Jurkat EC); format: cell-based; conditions: Jurkat cells on IL-1 stimulated human umbilical vein endothelial cells; read-out: JK/EC (Jurkat EC Assay IC50 value range)
T2 construct: a T-cell line, Jurkat, known to express the α4β1 integrin; host or cells: Jurkat T-cell line
T2 sequence (P13612 34-1032): as the sequence (P13612 34-1032) above
T2 sequence (P05556 21-798): as the sequence (P05556 21-798) above
Outline: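 BCECF-AM-labelled Jurkat cells were mixed with compound, generally 100, 20, 5 and 1.25 μM, and added to HUVEC monolayers (passage ≤6) pre-stimulated 4 hr at 37° C with 0.1 ng/ml IL-1. After 5 min on ice and 20 min at 37° C, washed wells were read by fluorescence as % adhesion relative to no compound.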

SMILES | pIC50 [1] | pIC50 [2]
CC(C)(C)OC(=O)N1CSC[C@@H]1C(=O)N[C@H](Cc1ccc(NC(=O)c2c(Cl)cccc2Cl)cc1)C(=O)O (stereo in doubt) [Example 27, [S-(R*,S*)]-4-[[[1-Carboxy-2-[4-[(2,6-dichlorobenzoyl)amino]phenyl]ethyl]amino]carbonyl]-3-thiazolidinecarboxylic Acid 3-(1,1-Dimethylethyl)ester] | ≤ 6.12 | ≤ 6.00
O=C(O)CCC(=O)N1CCSCC1C(=O)N[C@@H](Cc1ccc(OCc2c(Cl)cccc2Cl)cc1)C(=O)O (stereo in doubt) [Example 105, [R-(R*,S*)]-3-[[[1-Carboxy-2-[4-[(2,6-dichlorophenyl)methoxy]phenyl]ethyl]amino]carbonyl]-γ-oxo-4-thiomorpholinebutanoic Acid] | 6.12 to 7.30 | ≤ 6.00
COC(=O)[C@H](Cc1ccc(NC(=O)c2c(Cl)cccc2Cl)cc1)NC(=O)[C@H]1CSCN1S(C)(=O)=O [Example 2, 4-[(2,6-Dichlorobenzoyl)amino]-N-[[(4S)-3-(methylsulfonyl)-4-thiazolidinyl]carbonyl]-L-phenylalanine Methyl Ester] | 6.12 to 7.30 | ≥ 6.60
CS(=O)(=O)N1CSC[C@@H]1C(=O)N[C@@H](Cc1ccc(NC(=O)c2c(Cl)cccc2Cl)cc1)C(=O)O [Example 3, 4-[(2,6-Dichlorobenzoyl)amino]-N-[[(4S)-3-(methylsulfonyl)-4-thiazolidinyl]carbonyl]-L-phenylalanine] | ≥ 7.30 | ≥ 6.60
COC(=O)[C@H](Cc1ccc(NC(=O)c2c(Cl)cccc2Cl)cc1)NC(=O)[C@H]1CSCN1C(=O)NC(C)(C)C [Example 6, 4-[(2,6-Dichlorobenzoyl)amino]-N-[[(4S)-3-[((1,1-dimethylethyl)amino)carbonyl]-4-thiazolidinyl]carbonyl]-L-phenylalanine Methyl Ester] | ≤ 6.12 | ≤ 6.00
CCN(CC)C(=O)N1CSC[C@@H]1C(=O)N[C@@H](Cc1ccc(NC(=O)c2c(Cl)cccc2Cl)cc1)C(=O)OC [Example 7, 4-[(2,6-Dichlorobenzoyl)amino]-N-[[(4S)-3-[(diethylamino)carbonyl]-4-thiazolidinyl]carbonyl]-L-phenylalanine Methyl Ester] | 6.12 to 7.30 | ≤ 6.00
O=C(Nc1ccc(C[C@H](NC(=O)[C@H]2CSCN2)C(=O)O)cc1)c1c(Cl)cccc1Cl [Example 11, 4-[(2,6-Dichlorobenzoyl)amino]-N-[[(4S)-4-thiazolidinyl]carbonyl]-L-phenylalanine Monohydrochloride Salt] | 6.12 to 7.30 | ≤ 6.00
CCS(=O)(=O)N1CSC[C@@H]1C(=O)N[C@@H](Cc1ccc(NC(=O)c2c(Cl)cccc2Cl)cc1)C(=O)OC [Example 42] | 6.12 to 7.30 | 6.00 to 6.60
CCS(=O)(=O)N1CSC[C@@H]1C(=O)N[C@@H](Cc1ccc(NC(=O)c2c(Cl)cccc2Cl)cc1)C(=O)O [Example 43] | ≥ 7.30 | ≥ 6.60
COC(=O)[C@H](Cc1ccc(NC(=O)c2c(Cl)cccc2Cl)cc1)NC(=O)[C@H]1CSCN1S(=O)(=O)c1ccc(C(F)(F)F)cn1 [Example 44, 4-[(2,6-Dichlorobenzoyl)amino]-N-[[(4S)-3-[[5-(trifluoromethyl)-2-pyridinyl]sulfonyl]-4-thiazolidinyl]carbonyl]-L-phenylalanine Methyl Ester] | ≤ 6.12 | ≤ 6.00
O=C(Nc1ccc(C[C@H](NC(=O)[C@H]2CSCN2S(=O)(=O)c2ccc(C(F)(F)F)cn2)C(=O)O)cc1)c1c(Cl)cccc1Cl [Example 45] | 6.12 to 7.30 | 6.00 to 6.60
COC(=O)[C@H](Cc1ccc(NC(=O)c2c(Cl)cccc2Cl)cc1)NC(=O)[C@H]1CSCN1S(=O)(=O)c1ccccc1 [Example 46, 4-[(2,6-Dichlorobenzoyl)amino]-N-[[(4S)-3-(phenylsulfonyl)-4-thiazolidinyl]carbonyl]-L-phenylalanine Methyl Ester] | ≤ 6.12 | ≤ 6.00
O=C(Nc1ccc(C[C@H](NC(=O)[C@H]2CSCN2S(=O)(=O)c2ccccc2)C(=O)O)cc1)c1c(Cl)cccc1Cl [Example 47] | ≥ 7.30 | ≥ 6.60
COC(=O)[C@H](Cc1ccc(NC(=O)c2c(Cl)cccc2Cl)cc1)NC(=O)[C@H]1CSCN1S(=O)(=O)c1cccc2c(N(C)C)cccc12 [Example 48, 4-[(2,6-Dichlorobenzoyl)amino]-N-[[(4S)-3-[[5-(dimethylamino)-1-naphthalenyl]sulfonyl]-4-thiazolidinyl]carbonyl]-L-phenylalanine Methyl Ester] | ≤ 6.12 | ≤ 6.00
CN(C)c1cccc2c(S(=O)(=O)N3CSC[C@@H]3C(=O)N[C@@H](Cc3ccc(NC(=O)c4c(Cl)cccc4Cl)cc3)C(=O)O)cccc12 [Example 49, 4-[(2,6-Dichlorobenzoyl)amino]-N-[[(4S)-3-[[5-(dimethylamino)-1-naphthalenyl]sulfonyl]-4-thiazolidinyl]carbonyl]-L-phenylalanine] | ≤ 6.12 | ≤ 6.00
COC(=O)[C@H](Cc1ccc(OCc2c(Cl)cccc2Cl)cc1)NC(=O)[C@H]1CSCN1S(C)(=O)=O [Example 50, O-[(2,6-Dichlorophenyl)methyl]-N-[[(4S)-3-(methylsulfonyl)-4-thiazolidinyl]carbonyl]-L-tyrosine Methyl Ester] | 6.12 to 7.30 | ≤ 6.00
CS(=O)(=O)N1CSC[C@@H]1C(=O)N[C@@H](Cc1ccc(OCc2c(Cl)cccc2Cl)cc1)C(=O)O [Example 51, O-[(2,6-Dichlorophenyl)methyl]-N-[[(4S)-3-(methylsulfonyl)-4-thiazolidinyl]carbonyl]-L-tyrosine] | 6.12 to 7.30 | 6.00 to 6.60
CC(C)(C)NC(=O)N1CSC[C@@H]1C(=O)N[C@@H](Cc1ccc(NC(=O)c2c(Cl)cccc2Cl)cc1)C(=O)O [Example 52, 4-[(2,6-Dichlorobenzoyl)amino]-N-[[(4S)-3-[[(1,1-dimethylethyl)amino]carbonyl]-4-thiazolidinyl]carbonyl]-L-phenylalanine] | 6.12 to 7.30 | ≥ 6.60
CCN(CC)C(=O)N1CSC[C@@H]1C(=O)N[C@@H](Cc1ccc(NC(=O)c2c(Cl)cccc2Cl)cc1)C(=O)O [Example 53, 4-[(2,6-Dichlorobenzoyl)amino]-N-[[(4S)-3-[(diethylamino)carbonyl]-4-thiazolidinyl]carbonyl]-L-phenylalanine] | ≥ 7.30 | ≥ 6.60
CN(CCc1ccccn1)C(=O)N1CSC[C@@H]1C(=O)N[C@@H](Cc1ccc(NC(=O)c2c(Cl)cccc2Cl)cc1)C(=O)O [Example 55, 4-[(2,6-Dichlorobenzoyl)amino]-N-[[(4S)-3-[[methyl[2-(2-pyridinyl)ethyl]amino]carbonyl]-4-thiazolidinyl]carbonyl]-L-phenylalanine] | ≥ 7.30 | ≥ 6.60
O=C(Nc1ccc(C[C@H](NC(=O)[C@H]2CSCN2C(=O)N(CCO)CCO)C(=O)O)cc1)c1c(Cl)cccc1Cl [Example 58, N-[[(4S)-3-[[bis(2-Hydroxyethyl)amino]carbonyl]thiazoldinyl]carbonyl]-4-[(2,6-dichlorobenzoyl)amino]-L-phenylalanine] | ≥ 7.30 | ≥ 6.60
COC(=O)[C@H](Cc1ccc(NC(=O)c2c(Cl)cccc2Cl)cc1)NC(=O)[C@H]1CSCN1C(C)=O [Example 61, N-[[(4S)-3-Acetyl-4-thiazolidinyl]carbonyl]-4-[(2,6-dichlorobenzoyl)amino]-L-phenylalanine Methyl Ester] | 6.12 to 7.30 | 6.00 to 6.60
CC(=O)N1CSC[C@@H]1C(=O)N[C@@H](Cc1ccc(NC(=O)c2c(Cl)cccc2Cl)cc1)C(=O)O [Example 62, N-[[(4S)-3-Acetyl-4-thiazolidinyl]carbonyl]-4-[(2,6-dichlorobenzoyl)amino]-L-phenylalanine] | ≥ 7.30 | ≥ 6.60
COC(=O)[C@H](Cc1ccc(OCc2c(Cl)cccc2Cl)cc1)NC(=O)[C@H]1CSCN1C(C)=O [Example 65, N-[[(4S)-3-Acetyl-4-thiazolidinyl]carbonyl]-O-[(2,6-dichlorophenyl)methyl]-L-tyrosine Methyl Ester] | 6.12 to 7.30 | ≤ 6.00
CC(=O)N1CSC[C@@H]1C(=O)N[C@@H](Cc1ccc(OCc2c(Cl)cccc2Cl)cc1)C(=O)O [Example 66, N-[[(4S)-3-Acetyl-4-thiazolidinyl]carbonyl]-O-[(2,6-dichlorophenyl)methyl]-L-tyrosine] | 6.12 to 7.30 | ≥ 6.60
COC(=O)[C@H](Cc1ccc(NC(=O)c2c(Cl)cccc2Cl)cc1)NC(=O)[C@@H]1CSCN1C(C)=O [Example 69, N-[[(4R)-3-Acetyl-4-thiazolidinyl]carbonyl]-4-[(2,6-dichlorobenzoyl)amino]-L-phenylalanine Methyl Ester] | ≤ 6.12 | ≤ 6.00
CC(=O)N1CSC[C@H]1C(=O)N[C@@H](Cc1ccc(NC(=O)c2c(Cl)cccc2Cl)cc1)C(=O)O [Example 70, N-[[(4R)-3-Acetyl-4-thiazolidinyl]carbonyl]-4[(2,6-dichlorobenzoyl)amino]-L-phenylalanine] | ≥ 7.30 | 6.00 to 6.60
O=C(Nc1ccc(C[C@H](NC(=O)[C@@H]2CSCN2)C(=O)O)cc1)c1c(Cl)cccc1Cl [Example 71, 4-[(2,6-Dichlorobenzoyl)amino]-N-[[(4R)-4-thiazolidinyl]carbonyl]-L-phenylalanine Monohydrochloride Salt] | ≤ 6.12 | ≤ 6.00
